Where two headings read alike, the source gives them in different places.
Experiments:
[1] = in vivo
Procedure: (§1) Belinostat was administered by a 30 min intravenous (IV) infusion on days 1 through 5 of each cycle; pevonedistat was administered by a 60 min IV infusion on days 1, 3 and 5 immediately after belinostat. The treatments were repeated on 21-day cycles until disease progression or unacceptable toxicity. […] The regimen was administered on an outpatient basis.
(§2) Blood samples for measurement of plasma concentrations were collected on day 1 of cycle 1 for both belinostat and pevonedistat. Belinostat, PK samples were collected pretreatment, 5 min prior to the end of the infusion, and at 0.25, 0.5, 1, 2, 4, 6, 8, and 24 h after the end of the infusion. Pevonedistat, PK samples were collected pretreatment and 0.5, 1, 2, 2.5, 5, and 24 h after the start of the infusion. Plasma was stored at − 80 °C until analysis. […] Concentrations of belinostat were determined over the range of 30–5000 ng/mL with dilutions of up to 1:100 v/v using a validated LC/MS/MS method at the Analytical Pharmacology Core Laboratory at the Sidney Kimmel Comprehensive Cancer Center at Johns Hopkins [33].
(§3) Pharmacokinetic parameters were calculated from individual concentration–time data using standard noncompartmental methods as implemented in Phoenix WinNonlin version 8.2 (Pharsight A Certara Company, Cary, North Carolina). Pharmacokinetic parameters were summarized using descriptive statistics. Differences between the pharmacokinetic parameters between dose levels or BSA-based dose were evaluated statistically via the nonparametric Kruskal–Wallis test. All statistical tests were performed using JMP Statistical Discovery software (version 7; SAS Institute, Cary, NC).

[2] = test system: relapsed/refractory AML and myelodysplastic syndrome; set-up: method as in PMID 24369094, PMID 21538061; details: some patients; cited from earlier work
[3] = Plasma pharmacokinetics of belinostat and belinostat glucuronide (LC/MS/MS, noncompartmental analysis)
Procedure: as §1, §2, §3

[4] = set-up: method as in PMID 31097586, PMID 33441097; details: e.g. value, compared with clinical Cmax; cited from earlier work
high-risk MDS = test system: high-risk MDS; set-up: method as in PMID 35728048; details: comparator (azacitidine without pevonedistat); subset with high-risk MDS, post-hoc analysis; cited from earlier work
[5] = cycle 1 day 1, dose level 1, belinostat 800 mg/m^2 IV (pevonedistat 20 mg/m^2), n=2, actual values
[6] = cycle 1 day 1, dose level 3, belinostat 800 mg/m^2 IV (pevonedistat 37 mg/m^2), n=2, actual values

With `O=C(/C=C/c1cccc(S(=O)(=O)Nc2ccccc2)c1)NO[C@@H]1O[C@H](C(=O)O)[C@@H](O)[C@H](O)[C@H]1O` [Belinostat glucuronide] the “Pharmacokinetic parameters compared between dose levels” value [1] was “not different by dose level”.

In the case of `O=C(/C=C/c1cccc(S(=O)(=O)Nc2ccccc2)c1)NO` [Belinostat], the Single-agent clinical activity [2] is listed as “stable disease over several months”, the “Belinostat clearance by BSA-based dose” value ([3]; 1000 mg/m^2 compared with 800 mg/m^2, p = 0.05, Kruskal–Wallis) is listed as “significantly higher” and the AUCINF [3, 5] is listed as 75.2 µM·h. For the same compound, the “Cl (systemic clearance)” value [3, 5] was 87.5 L/h, the T1/2 [3, 5] was 40.2 min and the Tmax ([3]; cycle 1 day 1, dose level 2, belinostat 800 mg/m^2 IV (pevonedistat 25 mg/m^2), median (range; n)) was 0.5 (0.4–0.5; 3) h. The Tmax ([3]; cycle 1 day 1, dose level 3, belinostat 800 mg/m^2 IV (pevonedistat 37 mg/m^2), median (range; n)) was 0.4 (0.4–0.5; 3) h, the AUCINF [3, 6] was 87.4 µM·h and the “Cl (systemic clearance)” value [3, 6] was 82.4 L/h. For the same compound, the T1/2 [3, 6] was 87.6 min, the “Pharmacokinetic parameters compared between dose levels” value ([3]; dose levels 1-5, Kruskal–Wallis) was “not different by dose level” and the Tmax ([3]; human, plasma, iv) was 30 min. The AUC(0-inf) ([3]; human, plasma, iv, 800 mg/m2, AUCINF, cycle 1 day 1, belinostat 800 mg/m^2 IV, all 800 mg/m^2 patients (dose levels 1-3), mean±SD, n=7) was 67.5 ± 19.1 µM·h, the clearance ([3]; human, plasma, iv, 800 mg/m2, Cl (systemic clearance), cycle 1 day 1, belinostat 800 mg/m^2 IV, all 800 mg/m^2 patients (dose levels 1-3), mean±SD, n=7) was 1290 mL/min and the half-life ([3]; human, plasma, iv, 800 mg/m2, T1/2, cycle 1 day 1, belinostat 800 mg/m^2 IV, all 800 mg/m^2 patients (dose levels 1-3), mean±SD, n=7) was 67.8 ± 30 min. For the same compound, the AUC(0-inf) ([3]; human, plasma, iv, 1000 mg/m2, AUCINF, cycle 1 day 1, belinostat 1000 mg/m^2 IV, all 1000 mg/m^2 patients (dose levels 4-5), mean±SD, n=7) was 51.6 ± 25.8 µM·h, the clearance ([3]; human, plasma, iv, 1000 mg/m2, Cl (systemic clearance), cycle 1 day 1, belinostat 1000 mg/m^2 IV, all 1000 mg/m^2 patients (dose levels 4-5), mean±SD, n=7) was 2180 mL/min and the half-life ([3]; human, plasma, iv, 1000 mg/m2, T1/2, cycle 1 day 1, belinostat 1000 mg/m^2 IV, all 1000 mg/m^2 patients (dose levels 4-5), mean±SD, n=7) was 53.4 ± 18 min. For the same compound, the Cmax ([3]; human, plasma, iv, 1000 mg/m2, preEOI Cmax (peak plasma concentration), cycle 1 day 1, belinostat 1000 mg/m^2 IV, all 1000 mg/m^2 patients (dose levels 4-5), mean±SD, n=7) was 104 ± 37.8 µM, the AUC(0-inf) ([3]; human, plasma, iv, AUCINF, cycle 1 day 1, dose level 1, belinostat 800 mg/m^2 IV (pevonedistat 20 mg/m^2), n=2, actual values) was 54.6 µM·h and the AUC(0-inf) ([3]; human, plasma, iv, AUCINF, cycle 1 day 1, dose level 2, belinostat 800 mg/m^2 IV (pevonedistat 25 mg/m^2), mean±SD, n=3) was 64.7 ± 27.4 µM·h. For the same compound, the AUC(0-inf) ([3]; human, plasma, iv, AUCINF, cycle 1 day 1, dose level 3, belinostat 800 mg/m^2 IV (pevonedistat 37 mg/m^2), n=2, actual values) was 61 µM·h, the AUC(0-inf) ([3]; human, plasma, iv, AUCINF, cycle 1 day 1, dose level 4, belinostat 1000 mg/m^2 IV (pevonedistat 37 mg/m^2), mean±SD, n=3) was 60.3 ± 39.2 µM·h and the AUC(0-inf) ([3]; human, plasma, iv, AUCINF, cycle 1 day 1, dose level 5, belinostat 1000 mg/m^2 IV (pevonedistat 50 mg/m^2), mean±SD, n=4) was 45.1 ± 13.4 µM·h. The clearance ([3]; human, plasma, iv, Cl (systemic clearance), cycle 1 day 1, dose level 1, belinostat 800 mg/m^2 IV (pevonedistat 20 mg/m^2), n=2, actual values) was 1000 mL/min, the clearance ([3]; human, plasma, iv, Cl (systemic clearance), cycle 1 day 1, dose level 2, belinostat 800 mg/m^2 IV (pevonedistat 25 mg/m^2), mean±SD, n=3) was 1380 mL/min and the clearance ([3]; human, plasma, iv, Cl (systemic clearance), cycle 1 day 1, dose level 3, belinostat 800 mg/m^2 IV (pevonedistat 37 mg/m^2), n=2, actual values) was 1030 mL/min. It also gave a clearance ([3]; human, plasma, iv, Cl (systemic clearance), cycle 1 day 1, dose level 4, belinostat 1000 mg/m^2 IV (pevonedistat 37 mg/m^2), mean±SD, n=3) of 2020 mL/min, a clearance ([3]; human, plasma, iv, Cl (systemic clearance), cycle 1 day 1, dose level 5, belinostat 1000 mg/m^2 IV (pevonedistat 50 mg/m^2), mean±SD, n=4) of 2300 mL/min and a half-life ([3]; human, plasma, iv, T1/2, cycle 1 day 1, dose level 1, belinostat 800 mg/m^2 IV (pevonedistat 20 mg/m^2), n=2, actual values) of 35.4 min. The half-life ([3]; human, plasma, iv, T1/2, cycle 1 day 1, dose level 2, belinostat 800 mg/m^2 IV (pevonedistat 25 mg/m^2), mean±SD, n=3) was 81.6 ± 36.6 min, the half-life ([3]; human, plasma, iv, T1/2, cycle 1 day 1, dose level 3, belinostat 800 mg/m^2 IV (pevonedistat 37 mg/m^2), n=2, actual values) was 67.2 min and the half-life ([3]; human, plasma, iv, T1/2, cycle 1 day 1, dose level 4, belinostat 1000 mg/m^2 IV (pevonedistat 37 mg/m^2), mean±SD, n=3) was 61.2 ± 26.4 min. The half-life ([3]; human, plasma, iv, T1/2, cycle 1 day 1, dose level 5, belinostat 1000 mg/m^2 IV (pevonedistat 50 mg/m^2), mean±SD, n=4) was 47.4 ± 7.2 min, the Cmax ([3]; human, plasma, iv, preEOI Cmax (peak plasma concentration), cycle 1 day 1, dose level 1, belinostat 800 mg/m^2 IV (pevonedistat 20 mg/m^2), n=2, actual values) was 109 µM and the Cmax ([3]; human, plasma, iv, preEOI Cmax (peak plasma concentration), cycle 1 day 1, dose level 2, belinostat 800 mg/m^2 IV (pevonedistat 25 mg/m^2), mean±SD, n=3) was 120 ± 50.3 µM. It also gave a Cmax ([3]; human, plasma, iv, preEOI Cmax (peak plasma concentration), cycle 1 day 1, dose level 4, belinostat 1000 mg/m^2 IV (pevonedistat 37 mg/m^2), mean±SD, n=4) of 96.5 ± 46 µM, a Cmax ([3]; human, plasma, iv, preEOI Cmax (peak plasma concentration), cycle 1 day 1, dose level 5, belinostat 1000 mg/m^2 IV (pevonedistat 50 mg/m^2), mean±SD, n=3) of 114 ± 29.4 µM and a Cmax ([3]; read-out: preEOI Cmax (peak plasma concentration), cycle 1 day 1, belinostat 800 mg/m^2 IV, all 800 mg/m^2 patients (dose levels 1-3), mean±SD, n=8) of 123 ± 34.3 µM. The Cmax ([3]; read-out: preEOI Cmax (peak plasma concentration), cycle 1 day 1, dose level 1, belinostat 800 mg/m^2 IV (pevonedistat 20 mg/m^2), n=2, actual values) was 144 µM, the Cmax ([3]; read-out: preEOI Cmax (peak plasma concentration), cycle 1 day 1, dose level 3, belinostat 800 mg/m^2 IV (pevonedistat 37 mg/m^2), mean±SD, n=3) was 125 ± 35 µM and the “Concentrations shown to exert activity in preclinical studies” value [4] was 100 to 200 nM.

For `Nc1ncn([C@@H]2O[C@H](CO)[C@@H](O)[C@H]2O)c(=O)n1` [azacitidine], the Survival (high-risk MDS) is listed as 20.6 mos.

From PMC11742280, “A phase I study of MLN4924 and belinostat in relapsed/refractory acute myeloid leukemia or myelodysplastic syndrome” (Cancer Chemotherapy and Pharmacology, 2025)
